These results are taken from ChEMBL document CHEMBL3734714, “Synthesis and cytostatic activity of 7-arylsulfanyl-7-deazapurine bases and ribonucleosides” (Medchemcomm, 2015).

Test [1] relates to HL-60. The test is described as follows: Cytostatic activity against human HL60 cells assessed as cell viability after 6 days by XTT assay. It is filed as functional, cell-based. Particulars: HL-60, 144 h.
Test [2] has as its system BJ. Put plainly: Cytostatic activity against human BJ cells after 3 days by MTT assay. Particulars: 72 h. It counts as ADME, cell-based.
The nature of test [3]: Cytostatic activity against human K562-TAX cells after 3 days by MTT assay. It is filed as functional, cell-based. The note with it: 72 h.
In test [4] the test system is HeLa S3. The test is described as follows: Cytostatic activity against human HeLaS3 cells assessed as cell viability after 6 days by XTT assay. It is filed as functional, cell-based. The note with it: HeLa S3, 144 h.
For test [5], the system named is MRC5. Put plainly: Cytostatic activity against human MRC5 cells after 3 days by MTT assay. Particulars: MRC5, 72 h. It counts as ADME, cell-based.
Test [6] in a line: Cytostatic activity against p53 deficient human HCT116 cells after 3 days by MTT assay. It counts as functional, cell-based. The note with it: HCT-116, 72 h.
Test [7] has as its system Hepatitis C virus. The test is described as follows: Antiviral activity against HCV1B. It is filed as functional, organism-based. The note with it: Hepacivirus hominis; genotype 1b.
Test [8] concerns HepG2. The test is described as follows: Cytostatic activity against human HepG2 cells assessed as cell viability after 6 days by XTT assay. It counts as functional, cell-based. The note with it: HepG2, 144 h.
Test [9] deals with A549. Put plainly: Cytostatic activity against human A549 cells after 3 days by MTT assay. The note with it: A549, 72 h. It counts as functional, cell-based.
Test [10] is described as follows: Cytostatic activity against human HCT116 cells after 3 days by MTT assay. It is filed as functional, cell-based. The note with it: HCT-116, 72 h.
Test [11] concerns CCRF-CEM. Put plainly: Cytostatic activity against human CCRF-CEM cells after 3 days by MTT assay. Particulars: 72 h. It counts as functional, cell-based.
In test [12] the test system is K562. The test is described as follows: Cytostatic activity against human K562 cells after 3 days by MTT assay. It is filed as functional, cell-based. The note with it: K562, 72 h.
The nature of test [13]: Cytostatic activity against human CEM/DNR cells after 3 days by MTT assay. It counts as functional, cell-based. Particulars: 72 h.
Test [14] concerns Hepatitis C virus. Put plainly: Antiviral activity against HCV2A. It is filed as functional, organism-based. Particulars: Hepacivirus hominis; genotype 2a.
The test system of test [15] is Candida. Put plainly: Antifungal activity against Candida sp. It is filed as functional, organism-based.
Test [16] is described as follows: Antiviral activity against RSV. It is filed as functional, organism-based.

Calls of active or inactive are those of the source. The calls are words filed in the database; no cut-off is given here. Some results are limits rather than exact numbers.

In the case of `CN(C)c1ncnc2[nH]cc(Sc3cccs3)c12`, the IC50 is over 25 µM in [1]; 145 µM in test [2]; 22.1 µM in test [3]; over 25 µM in test [4]; over 150 µM in test [5]; 27.5 µM in [6]. Also, the IC50 is over 25 µM in test [8]; 19.8 µM in test [9]; 11 µM in [10]; 14.6 µM in [11]; 3.83 µM in test [12]; 35.2 µM in [13]. The result in test [7], in test [14], in test [15] and in [16] was inactive.

As to `Nc1ncnc2[nH]cc(Sc3cccs3)c12`, the half-inhibitory concentration (IC50) in [1] was 13.9 µM; in test [2], over 150 µM; in test [3] it was 17.9 µM; in [4], 17.9 µM; in [5] it was 136 µM; in test [6] it was over 50 µM. Further, the IC50 is over 25 µM in test [8]; 22.8 µM in test [9]; 22.8 µM in test [10]; 16.7 µM in [11]; 17.9 µM in test [12]; 20.3 µM in test [13]. The result in test [7], in [14], in [15] and in test [16] was inactive.

Turning to `c1csc(Sc2c[nH]c3ncnc(-c4cccs4)c23)c1`, the IC50 was 21.1 µM in test [1]; 23.4 µM in test [2]; 21.7 µM in test [3]; over 25 µM in test [4]; 54.5 µM in test [5]; 5.06 µM in test [6]. Besides, the IC50 in test [8] is over 25 µM; in test [9] it was 16.2 µM; in [10], 13 µM; in [11], 10.6 µM; in test [12], 5.14 µM; in test [13], 17.7 µM. Also, the outcome in [7], in [14], in test [15] and in test [16] was inactive.

With `c1coc(-c2ncnc3[nH]cc(Sc4cccs4)c23)c1`, the IC50 in test [1] came out at 7.63 µM; in test [2] it was 22.1 µM; in test [3] it was 18.9 µM; in test [4], 8.49 µM; in test [5], 32.9 µM; in test [6] it was 19.5 µM. Moreover, the IC50 in test [8] was over 25 µM; in [9], 11.4 µM; in [10], 6.75 µM; in test [11] it was 7.73 µM; in test [12], 4.26 µM; in test [13], 20.8 µM. Also, the outcome in test [7], in [14], in test [15] and in test [16] was inactive.

Turning to `Nc1ncnc2c1c(Sc1ccccc1)cn2[C@@H]1O[C@H](CO)[C@@H](O)[C@H]1O`, the IC50 in [1] is over 25 µM; in [2] it was 67.9 µM; in test [3], 29.6 µM; in [4] it was over 25 µM; in [5], 67.7 µM; in [6], 22.4 µM. For the same compound, the IC50 in [8] is over 25 µM; in [9], 22.9 µM; in test [10] it was 20.8 µM; in test [11], 34 µM; in [12] it was 23.1 µM; in test [13], over 50 µM. For the same compound, the result in [7], in test [14], in test [15] and in test [16] was inactive.

`COc1ncnc2[nH]cc(Sc3cccs3)c12`: the IC50 is over 25 µM in test [1]; 123 µM in test [2]; 44 µM in [3]; 23.9 µM in [4]; 148 µM in test [5]; over 50 µM in [6]. For the same compound, the IC50 was over 25 µM in test [8]; 21.5 µM in test [9]; 17.2 µM in test [10]; 18.2 µM in test [11]; over 50 µM in test [12]; over 50 µM in test [13]. The result in [7], in test [14], in test [15] and in test [16] was inactive.

On to `Cc1ncnc2[nH]cc(Sc3cccs3)c12`, for which the IC50 in test [1] is over 25 µM; in test [2] it was over 150 µM; in test [3], 64.6 µM; in [4], over 25 µM; in [5], 136 µM; in test [6] it was 29.1 µM. Moreover, the half-maximal inhibitory concentration (IC50) was over 25 µM in test [8]; over 50 µM in [9]; 38.1 µM in test [10]; over 50 µM in [11]; 14 µM in test [12]; over 50 µM in [13]. For the same compound, the result in [7], in test [14], in [15] and in test [16] was inactive.

In the case of `Nc1ncnc2c1c(Sc1cccs1)cn2[C@@H]1O[C@H](CO)[C@@H](O)[C@H]1O`, the IC50 was over 25 µM in [1]; 93.6 µM in test [2]; 55.8 µM in test [3]; over 25 µM in test [4]; 138 µM in test [5]; 23.2 µM in test [6]. Further, the IC50 in [8] is over 25 µM; in test [9], 43.8 µM; in [10] it was 36.7 µM; in test [11], 64.7 µM; in [12], 23.4 µM; in [13], over 100 µM. Moreover, the outcome in [7], in [14], in test [15] and in test [16] was inactive.

As for `CNc1ncnc2[nH]cc(Sc3cccs3)c12`, the IC50 came out at 13.5 µM in test [1]; 132 µM in [2]; 21 µM in [3]; 17.6 µM in [4]; 148 µM in test [5]; 45.3 µM in test [6]. Also, the IC50 in [8] is over 25 µM; in test [9], 28.6 µM; in [10], 19 µM; in [11] it was 14.7 µM; in test [12], 4.95 µM; in test [13], 26.2 µM. In addition, the result in test [7], in [14], in [15] and in test [16] was inactive.
